These results are taken from patent US6160004A, “C-10 carbon-substituted artemisinin-like trioxane compounds having antimalarial, antiproliferative and antitumor activities” (priority 1998, dated 2000).

In one series the test system is UACC-257. Nature of the series: cells. Format: cell-based. Conditions: Homo sapiens, UACC-257, 48 h; read-out: Log10 TGI (converted).
The test system of a further series is SR. The series is described as follows: cells. It counts as cell-based. Conditions: Homo sapiens, leukemia, 48 h, read-out: Log10 TGI.
For a further series, the system named is CCRF-CEM. The series is described as follows: cells. It counts as cell-based. Conditions: Homo sapiens, leukemia, 48 h, read-out: Log10 TGI.
Another series deals with NCI-H460. The series is described as follows: cells. Conditions: Homo sapiens, NCI-H460, non-small cell lung cancer, 48 h. Format: cell-based.
Another series deals with MDA-MB231/ATCC. Nature of the series: cells. Format: cell-based. Conditions: Homo sapiens, MDA-MB-231, breast cancer, 48 h, read-out: Log10 TGI (converted).
The subject of a further series is 786-0. The series is described as follows: cells. It counts as cell-based. Conditions: Homo sapiens; 786-0, renal cancer, 48 h; read-out: Log10 TGI.
The subject of another series is SNB-19. Nature of the series: cells. Format: cell-based. Conditions: Homo sapiens; SNB-19, CNS cancer, 48 h; read-out: Log10 TGI.
The next series has as its system U251. Nature of the series: cells. It counts as cell-based. Conditions: Homo sapiens, U-251; U251, CNS cancer, 48 h; read-out: Log10 TGI (converted).
The test system of the next series is HT29. The series is described as follows: cells. It counts as cell-based. Conditions: Homo sapiens, HT-29; HT29, colon cancer, 48 h; read-out: Log10 GI50 (converted).
The subject of a further series is PC-3. The series is described as follows: cells. Format: cell-based. To be noted: Homo sapiens; PC-3, prostate cancer, 48 h; read-out: Log10 TGI.
In another series the test system is K-562. Nature of the series: cells. Conditions: Homo sapiens, K562; K-562, leukemia, 48 h; read-out: Log10 TGI (converted). It counts as cell-based.
The next series deals with T-47D. Nature of the series: NCI 60 cell line panel screening assay (SRB), T-47D. To be noted: Homo sapiens, T47D, 48 h, read-out: Log10 GI50 (converted).
In a further series the test system is HCT-116. The series is described as follows: cells. Format: cell-based. To be noted: Homo sapiens, HCT-116, 48 h.
Another series concerns MCF7/ADR-RES. Nature of the series: cells. To be noted: Homo sapiens; MCF7/ADR-RES, breast cancer, 48 h; read-out: Log10 TGI. Format: cell-based.
For another series, the system named is LOX IMVI. Nature of the series: cells. Format: cell-based. To be noted: Homo sapiens, melanoma, 48 h, read-out: Log10 TGI (converted).
A further series relates to SW-620. Nature of the series: NCI 60 cell line panel screening assay (SRB), SW-620. Format: cell-based. To be noted: Homo sapiens; SW-620, colon cancer, 48 h; read-out: Log10 TGI.
Series [1] relates to MOLT-4. The series is described as follows: cells. To be noted: Homo sapiens, MOLT-4, 48 h.
A further series has as its system SN12C. The series is described as follows: NCI 60 cell line panel screening assay (SRB), SN12C. Format: cell-based. Conditions: Homo sapiens, 48 h, read-out: Log10 TGI.
Another series concerns NCI-H322M. The series is described as follows: cells. Conditions: Homo sapiens, 48 h, read-out: Log10 TGI.
The test system of a further series is HL-60(TB). Nature of the series: cells. Conditions: Homo sapiens, HL-60, 48 h, read-out: Log10 TGI. It counts as cell-based.
For the next series, the system named is IGROVI. The series is described as follows: NCI 60 cell line panel screening assay (SRB), IGROVI. Format: cell-based. To be noted: 48 h, read-out: Log10 TGI.
The subject of another series is HOP-62. The series is described as follows: cells. It counts as cell-based. To be noted: Homo sapiens; HOP-62, non-small cell lung cancer, 48 h; read-out: Log10 TGI (converted).
The next series concerns BT-549. The series is described as follows: cells. Format: cell-based. Conditions: Homo sapiens, BT-549, breast cancer, 48 h.
Series [2] has as its system MOLT-4. Conditions: MOLT-4, FIG. 6.
A further series has as its system M14. Nature of the series: NCI 60 cell line panel screening assay (SRB), M14. Conditions: Homo sapiens, M14, 48 h, read-out: Log10 TGI.
The next series relates to NCI-H522. The series is described as follows: cells. Format: cell-based. Conditions: Homo sapiens; NCI-H522, non-small cell lung cancer, 48 h; read-out: Log10 TGI (converted).
The subject of a further series is OVCAR-3. The series is described as follows: cells. It counts as cell-based. Conditions: Homo sapiens; OVCAR-3, ovarian cancer, 48 h; read-out: Log10 TGI (converted).
The test system of another series is HCT-15. The series is described as follows: cells. It counts as cell-based. Conditions: Homo sapiens, HCT-15, colon cancer, 48 h.
In a further series the test system is OVCAR-5. The series is described as follows: cells. It counts as cell-based. Conditions: Homo sapiens; OVCAR-5, ovarian cancer, 48 h; read-out: Log10 TGI (converted).
The next series deals with 60 cell line panel. Nature of the series: NCI 60 cell line panel, whole panel. To be noted: panel.
A further series concerns MALME-3M. Nature of the series: cells. It counts as cell-based. Conditions: Homo sapiens, Malme-3M, 48 h, read-out: Log10 TGI.
The subject of a further series is OVCAR-4. The series is described as follows: cells. To be noted: Homo sapiens, OVCAR-4, 48 h. It counts as cell-based.
Another series relates to OVCAR-8. The series is described as follows: cells. It counts as cell-based. Conditions: Homo sapiens; OVCAR-8, ovarian cancer, 48 h; read-out: Log10 GI50 (converted).
Another series relates to DU-145. The series is described as follows: cells. Format: cell-based. To be noted: Homo sapiens, DU-145, 48 h; read-out: Log10 TGI.
In a further series the test system is RPMI-8226. Nature of the series: NCI 60 cell line panel screening assay (SRB), RPMI-8226. Format: cell-based. To be noted: Homo sapiens, RPMI-8226, leukemia, 48 h.
A further series deals with MDA-N. The series is described as follows: NCI 60 cell line panel screening assay (SRB), MDA-N. It counts as cell-based. To be noted: Homo sapiens, breast cancer, 48 h, read-out: Log10 GI50 (converted).
A further series relates to KM12. Nature of the series: cells. It counts as cell-based. To be noted: Homo sapiens; KM12, colon cancer, 48 h; read-out: Log10 TGI.
The test system of the next series is MDA-MB435. The series is described as follows: NCI 60 cell line panel screening assay (SRB), MDA-MB435. It counts as cell-based. To be noted: Homo sapiens, MDA-MB-435; printed MDA-MBA35, breast cancer, 48 h; read-out: Log10 GI50 (converted).
The conditions of series [3]: rat liver microsomes; cited from earlier work.
The test system of another series is PE cells. The series is described as follows: Viability by trypan blue exclusion. To be noted: 96 hours. Format: cell-based, murine (SENCAR mice).
The conditions of series [4]: cited from earlier work.
[5] abbreviates: read-out: Log10 GI50 (converted).
The mark [6] stands for this setting: read-out: Log10 TGI (converted).

As usually defined, the GI50 is the concentration that inhibits growth by half. `CC(=O)O[C@H]1C(=O)[C@@]2(C)[C@H]([C@H](OC(=O)c3ccccc3)[C@]3(O)C[C@H](OC(=O)[C@H](O)[C@@H](NC(=O)c4ccccc4)c4ccccc4)C(C)=C1C3(C)C)[C@]1(OC(C)=O)CO[C@@H]1C[C@@H]2O` [Paclitaxel, reference compound]: the IC (TGI) was 30.2 µM with UACC-257; over 100 µM in the series with SR; over 100 µM with CCRF-CEM; 12 µM with NCI-H460 (setting [6]); 14.5 µM in the series with MDA-MB231/ATCC; over 100 µM in the series with 786-0. In addition, the IC (TGI) is over 100 µM with SNB-19; 47.9 µM in the series with U251; over 100 µM in the series on PC-3; over 100 µM in the series with K-562; 15.1 µM in the series on HCT-116 (setting [6]); over 100 µM in the series on MCF7/ADR-RES. Moreover, the IC (TGI) was 22.4 µM in the series on LOX IMVI; over 100 µM in the series with SW-620; over 100 µM in the series with MOLT-4 [1] (read-out: Log10 TGI); 51.3 µM with SN12C; 34.7 µM with NCI-H322M; over 29.5 µM with HL-60(TB). The IC (TGI) in the series on IGROVI is 64.6 µM; with HOP-62, 15.8 µM; in the series with BT-549 (setting [6]), 0.479 µM; with M14, 24 µM; with NCI-H522 it was 6.31 pM; with OVCAR-3, 28.2 µM. Also, the IC (TGI) with HCT-15 (read-out: Log10 TGI) is over 100 µM; with OVCAR-5 it was 12 µM; in the series with MALME-3M, 34.7 µM; in the series with OVCAR-4 (read-out: Log10 TGI), 64.6 µM; in the series with DU-145 it was over 100 µM; with RPMI-8226 (read-out: Log10 TGI), over 100 µM. The IC (TGI) in the series on KM12 came out at 43.7 µM. Also, the GI50 in the series with NCI-H460 (setting [5]) is under 0.1 pM; in the series on HT29, under 0.1 pM; in the series on T-47D it was 0.000155 µM; in the series on HCT-116 (setting [5]), under 0.1 pM; in the series with BT-549 (setting [5]), 0.00049 µM; in the series on HCT-15 (setting [5]), 0.427 µM. Moreover, the GI50 was 10 µM in the series on OVCAR-4 (setting [5]); 17.8 pM in the series with OVCAR-8; under 0.1 pM with RPMI-8226 (setting [5]); under 0.1 pM in the series with MDA-N; under 0.1 pM with MDA-MB435. The CC50 in the series on MOLT-4 [1] (read-out: Log10 LC50 (converted)) was over 100 µM. For the same compound, the “concentration for cytostasis (PG 0)” value in the series with MOLT-4 [2] was “greater than 10^-4 M”. Also, in the series with 60 cell line panel, the “Delta of Log10 LC50” value was -4.06. Besides, the “Delta of Log10 TGI” value with 60 cell line panel is listed as -4.54. Further, the “Range of Log10 TGI” value in the series with 60 cell line panel came out at 7.20.
In the case of `CCO[C@H]1O[C@@H]2O[C@@]3(C)CC[C@H]4[C@H](C)CC[C@@H]([C@H]1C)[C@@]24OO3` [arteether], the conversion into dihydroartemisinin result in [3] was “rapidly converted”.
`C=C1/C(=C\C=C2/CCC[C@]3(C)[C@@H]([C@H](C)CCCC(C)(C)O)CC[C@@H]23)C[C@@H](O)C[C@@H]1O` [calcitriol, 1α, 25-dihydroxyvitamin D3]: the “viability of treated cells” value with PE cells is “identical to control cells”.
For `C[C@@H]1CC[C@H]2[C@@H](C)C(O)O[C@@H]3O[C@@]4(C)CC[C@@H]1[C@]32OO4` (some centres unmarked) [dihydroartemisinin], in [4], the half-life in plasma entry is listed as “less than two”.
